Experimental data from PMC7433010, “Exploration of multi‐target effects of 3‐benzoyl‐5‐hydroxychromen‐2‐one in Alzheimer’s disease cell and mouse models” (Aging Cell, 2020).

How the values were obtained:
GADD45B = experiment: Western blot of GADD45B in ∆K280 TauRD‐DsRed SH‐SY5Y cells; format: cell-based, human; details: 1 µM; induced untreated 65%, uninduced 100%
Description: (§1) Total proteins from ∆K280 TauRD-DsRed SH-SY5Y cells were obtained using a RIPA buffer containing 50 mM Tris-HCl (pH8.0), 150 mM NaCl, 2 mM EDTA (pH8.0), 50 mM NaF, 0.1% SDS, 0.5% sodium deoxycholate, 1% NP40, and a protease inhibitor cocktail (Sigma-Aldrich). After sonication and sitting on ice for 20 min, the lysates were centrifuged at 14,000 × g for 30 min at 4°C. Protein concentrations were determined using a protein assay kit (Bio-Rad, Hercules, CA, USA), with albumin as a standard. Total proteins (20 µg) were electrophoresed on 10% or 12% SDS-polyacrylamide gel and transferred onto polyvinylidene difluoride (PVDF) membranes (Sigma-Aldrich) through reverse electrophoresis. […] Subsequently, immune complexes were detected using a horseradish peroxidase-conjugated goat anti-mouse or goat anti-rabbit IgG antibody (1:5000; GeneTex, Irvive, CA, USA) and a chemiluminescent substrate (Millipore).

sarkosyl‐insoluble Tau = experiment: TEM of sarkosyl‐insoluble Tau from STZ‐treated 3 × Tg‐AD mice; format: in vivo, mouse; details: STZ/LM‐031 mice
From the text: Figure S7. Body weight, blood glucose, open field task, NeuN immunoreactivity, and TEM of sarkosyl-insoluble tau in STZ-treated 3×Tg-AD mice. (a) Body weight and blood glucose of the mice. […] (c) Representative IHC images for NeuN and intensity quantification in the hippocampus of mice. DG, dentate gyrus; CA1 and CA3, Cornu Ammonis areas 1 and 3. (d) TEM of sarkosyl-insoluble tau. p values, STZ vs. – STZ mice or STZ/LM-031 vs. STZ mice. *: p < 0.05, ^##: p < 0.01, ^##^#: p < 0.001. (one-way ANOVA with a post hoc Tukey test)

[1] = PAMPA‐BBB permeability assay
Description: The permeability of LM-031 was determined by a PAMPA-BBB assay. Briefly, the donor well (Millipore) was filled with 300 μl of LM-031 (1 μM) solution. […] The filter membrane (PVDF membrane, pore size 0.45 μm; Millipore) was coated with 4 μl of 20 mg/ml porcine polar brain lipid (Avanti Polar Lipids, Alabaster, AL, USA) in dodecane and the acceptor well was filled with 200 μl of acceptor buffer (5% DMSO in PBS). The filter plate was carefully placed on the donor plate to form a “sandwich” (consisting of aqueous donor on the bottom, artificial lipid membrane in the middle, and aqueous acceptor on the top). Each compound was tested in triplicate. The sandwich plate was incubated at room temperature for 18 h. After the permeation time, the PAMPA sandwich plate was separated. The concentration of LM-031 in the acceptor and donor wells was determined using QTRAP 6500 mass spectrometer (AB SCIEX, Singapore) linked to 1200 HPLC system (Agilent Technologies, Palo Alto, CA, USA).

NRF2 = experiment: Western blot of NRF2 in ∆K280 TauRD‐DsRed SH‐SY5Y cells; format: cell-based, human; details: 1 µM
Description: (§2) To knock down CREB expression in ∆K280 TauRD-DsRed SH-SY5Y cells, lentiviral short hairpin RNA (shRNA) targeting CREB (TRCN0000226466), NRF2 (TRCN0000007558), and a negative control scrambled (TRC2.Void) were obtained from National RNAi Core Facility, IMB/GRC, Academia Sinica, Taipei, Taiwan. On day 1, cells were plated on 6-well plates (for protein analysis) or 24-well plates (for neurite outgrowth analysis) in the presence of retinoic acid as described. On the second day, the cells were infected with lentivirus (multiplicity of infection: 3) in medium with polybrene (8 µg/mL; Sigma-Aldrich). On day 3, the culture medium was changed and the cells were pretreated with LM-031 (1 µM) for 8 h, followed by induction of ∆K280 TauRD-DsRed expression. On day 9, the cells were collected for NRF2, CREB, pCREB, and cleaved CASP3 protein analysis or analyzed for neurite outgrowth as described.
as §1

BDNF = experiment: Western blot of BDNF in ∆K280 TauRD‐DsRed SH‐SY5Y cells; format: cell-based, human; details: 1 µM, uninduced 100%
Description: as §1

ΔK280 TauRD‐DsRed = experiment: Western blot of soluble ΔK280 TauRD‐DsRed in SH‐SY5Y cells; format: cell-based, human; details: 1 µM, not significant
Description: as §2, with “On day 3, the culture medium was changed and the cells were pretreated with LM-031 (1 µM) for 8 h, followed by induction of ∆K280 TauRD-DsRed expression.” left out
as §1, with “After sonication and sitting on ice for 20 min, the lysates were centrifuged at 14,000 × g for 30 min at 4°C.” left out, “standard.” for “standard. Total proteins (20 µg) were electrophoresed on 10% or 12% SDS-polyacrylamide gel and transferred onto polyvinylidene difluoride (PVDF) membranes (Sigma-Aldrich) through reverse electrophoresis.”

For `O=C(c1ccccc1)c1cc2c(O)cccc2oc1=O` [LM‐031, 3‐benzoyl‐5‐hydroxychromen‐2‐one], the GADD45B protein level (GADD45B) was 111%, the “sarkosyl‐insoluble Tau aggregates by TEM” value (sarkosyl‐insoluble Tau) was “reduced Tau aggregates” and the Papp at 18 h, 1 µM [1] was 4.8 ± 0.12 ×10⁻⁶ cm/s. For the same molecule, the NRF2 protein level (NRF2; induced untreated 75%, uninduced 100%) was 109%, the NRF2 level (NRF2; NRF2‐specific shRNA‐infected cells, untreated 74%) was 98% and the NRF2 level (NRF2; scrambled shRNA‐infected cells, untreated 70%, uninduced 100%) was 105%. The “BDNF protein level, 14 kDa” value (BDNF; induced untreated 82%) was 155%, the “BDNF protein level, 32 kDa” value (BDNF; induced untreated 83%) was 101% and the “soluble TauRD‐DsRed protein level” value (ΔK280 TauRD‐DsRed; CREB‐specific shRNA‐infected cells, untreated 86%) was 104%. The “soluble TauRD‐DsRed protein level” value (ΔK280 TauRD‐DsRed; NRF2‐specific shRNA‐infected cells, untreated 82%) was 103%.
